Patent publication US20230357870A1 (priority 2020, published 2023)
Entries after “also recorded” stand apart in the source; their conditions may differ. Read-outs that look alike come from different tables or passages of the source.

What was measured:
[1] = system: pSmart BAC T7-scv2-replicon; test: microbe, parasite or virus in culture; type: cell-based, SARS-CoV-2; settings: read-out: Antiviral activity (EC50) against T7-scv2-replicon
[2] = system: pSmart BAC T7-scv1-replicon; test: microbe, parasite or virus in culture; type: cell-based, SARS-CoV-1; settings: read-out: Antiviral activity (EC50) against T7-scv1-replicon
[3] = system: pSmart BAC T7-mcv-replicon; test: microbe, parasite or virus in culture; type: cell-based, MERS; settings: for EC50: read-out: Antiviral activity (EC50) against T7-mcv-replicon
[4] = system: T7GG-scv2-luc-GFP replicon; test: microbe, parasite or virus in culture; type: cell-based, SARS-CoV-2
[5] = system: 293T cells
[6] = system: T7-scv2-luc-GFP replicon (SEQ ID NO: 2); test: microbe, parasite or virus in culture; type: cell-based, SARS-CoV-2
[7] = Severe acute respiratory syndrome coronavirus 2, HEK-293T
[8] = Severe acute respiratory syndrome coronavirus 2, A549
[9] = Severe acute respiratory syndrome coronavirus 2, Calu-1
[10] = Severe acute respiratory syndrome coronavirus 2, Vero
[11] = Severe acute respiratory syndrome coronavirus, HEK-293T
[12] = Middle East respiratory syndrome-related coronavirus, HEK-293T
[13] = Severe acute respiratory syndrome coronavirus 2, Huh7.5

Molecule | EC50 [1] [nM] | EC50 [2] [nM] | EC50 [3] [nM] | EC50 [4, 7] [nM] | EC50 [6, 8] [nM] | EC50 [6, 9] [nM] | EC50 [6, 7] [nM] | EC50 [6, 10] [nM] | EC50 [1, 7] [nM] | EC50 [2, 11] [nM] | EC50 [3, 12] [nM] | EC50 [6, 13] [nM] | also measured
GC376 | 20.8 ± 5.6 | 75.9 ± 23.2 | 35.2 ± 5.3 | – | – | – | – | – | – | – | – | – | antiviral activity (in words) [4]: highly potent; also recorded: modestly active; cytotoxicity [5]: No cytotoxicity was detected; EC50 ([6]; read-out: potency in inhibiting SARS-CoV-2 replicon replication (EC50), determined by % GFP signal): 22 ± 5.13 nM; EC50 ([6]; read-out: potency in inhibiting SARS-CoV-2 replicon replication (EC50), determined by % luciferase activity): 29.2 ± 9.17 nM
GC373 | 19.7 ± 4.6 | 74 ± 4.5 | 29.2 ± 3.7 | – | – | – | – | – | – | – | – | – | –
CN(C)C(=O)COC(=O)Cc1ccc(OC(=O)c2ccc(NC(=N)N)cc2)cc1 [Camostat, camostat] | – | – | – | > 42000 | > 42000 | > 42000 | > 42000 | > 42000 | – | – | – | – | –
PF-00835231 | 74.8 ± 20 | 167 ± 15.3 | 101 ± 33 | – | – | – | – | – | – | – | – | – | fold lower in Vero cells [4]: 75-300 fold
CC(C)(C)NC(=O)N[C@H](C(=O)N1C[C@H]2[C@@H]([C@H]1C(=O)NC(CC1CCC1)C(=O)C(N)=O)C2(C)C)C(C)(C)C (stereo partly shown) [MK-3034, Boceprevir] | – | – | – | – | – | – | – | – | 3550 ± 346 | 6410 ± 427 | 4670 ± 519 | – | –
N=C(N)c1ccc2cc(OC(=O)c3ccc(N=C(N)N)cc3)ccc2c1 [Nafamostat, nafamostat] | – | – | – | > 42000 | > 42000 | > 42000 | > 42000 | – | – | – | – | – | EC50 ([6]; Severe acute respiratory syndrome coronavirus 2, Vero C1008): > 42000 nM
CCC(CC)COC(=O)[C@H](C)N[P@](=O)(OC[C@H]1O[C@@](C#N)(c2ccc3c(N)ncnn23)[C@H](O)[C@@H]1O)Oc1ccccc1 [Remdesivir, remdesivir] | – | – | – | – | 184 | 62.8 | 11.3 | 2240 | 15.6 ± 5.1 | 42.9 ± 3.4 | 81.5 ± 8.8 | 18.9 | –
Cc1cccc(/C=N/Nc2cc(N3CCOCC3)nc(OCCc3ccccn3)n2)c1 [Apilimod, apilimod] | – | – | – | > 42000 | – | > 42000 | – | – | – | – | – | > 42000 | –
N#C[C@@]1(c2ccc3c(N)ncnn23)O[C@H](CO)[C@@H](O)[C@H]1O [GS-441524] | – | – | – | 657 ± 66.4 | 1470 ± 163 | 1330 ± 270 | 603 ± 131 | 302 ± 19.8 | 603 ± 106 | 1110 ± 86.5 | 5580 ± 357 | 1030 ± 354 | concentration to achieve 50% inhibition, MERS replicon compared with SARS-CoV-2 or SARS-CoV-1 replicon [3]: greater concentration; antiviral activity (in words) [4]: active; EC50 [4, 8]: 716 ± 311 nM; EC50 [4, 9]: 1000 ± 217 nM; EC50 [4, 13]: 831 ± 201 nM; EC50 [4, 10]: 324 ± 173 nM; cytotoxicity [5]: No cytotoxicity was detected; EC50 ([6]; Severe acute respiratory syndrome coronavirus 2, HEK-293T, 30 h, read-out: potency in inhibiting SARS-CoV-2 replicon replication (EC50), determined by % GFP signal): 645 ± 54.3 nM; EC50 ([6]; Severe acute respiratory syndrome coronavirus 2, HEK-293T, 30 h, read-out: potency in inhibiting SARS-CoV-2 replicon replication (EC50), determined by % luciferase activity): 502 ± 109 nM
CC(C)C[C@H](NC(=O)c1cc2ccccc2o1)C(=O)N[C@H]1CC[C@@H](C)N(S(=O)(=O)c2ccccn2)CC1=O [Relacatib, relacatib] | – | – | – | > 42000 | > 42000 | > 42000 | > 42000 | > 42000 | – | – | – | – | –
